Experiments:
[1] = system: participants with non-lacunar, non-cardioembolic ischemic stroke or TIA; test: AXIOMATIC-SSP Phase 2, safety (bleeding, adverse events)
[2] = Milvexian pharmacokinetics in humans (healthy volunteers / terminal half-life)
Description: (AXIOMATIC-TKR Phase II). […] “Half-life (t1/2),” as used herein, refers to apparent terminal elimination half-life having a mean value calculated using formula t1/2=loge2/λz, where λz is the apparent terminal elimination rate-constant estimated by linear regression using the terminal log-linear phase of the logarithmic (log) transformed concentration vs time data.

[3] = system: participants undergoing primary unilateral elective TKR surgery; test: Total venous thromboembolism (VTE) in TKR patients, AXIOMATIC-TKR; format: in vivo, human
[4] = Milvexian clinical program, adverse drug reactions; format: in vivo, human; conditions: milvexian clinical development program
Description: […]. […] […]. Milvexian in the two Phase II clinical trials (AXIOMATIC-TKR and AXIOMATIC-SSP) focused on different patient populations.

[5] = Thorough QT (TQT) study in healthy adults; format: in vivo, human; conditions: for ΔΔQTcF, highest upper limit of 2-sided 90% CI: Day 1 and Day 4
Experimental: Pharmacokinetic analysis was performed on the plasma concentrations of each participant.

[6] = system: participants with non-lacunar, non-cardioembolic ischemic stroke or TIA; test: AXIOMATIC-SSP Phase 2, efficacy (ischemic stroke / covert brain infarction); format: in vivo, human
[7] = system: intrinsic and final common pathways of the coagulation cascade (aPTT); test: Activated partial thromboplastin time (aPTT), AXIOMATIC-TKR Phase II; format: in vivo, human; conditions: 25-200 mg QD/BID
Description: As used herein, the term “activated partial thromboplastin time (aPTT)” refers to a measure of the intrinsic and final common pathways of the coagulation cascade. It represents the time, in seconds, for plasma to clot after addition of phospholipid, an intrinsic pathway activator, and calcium. […] The term ‘partial’ means phospholipid is present but no tissue factor. The normal and reference ranges vary depending on reagent and instrument combinations, particularly with the phospholipid composition.
In some embodiments, aPTT is measured as follows: Plasma samples are incubated with Actin FS aPTT assay reagent containing a standard amount of phospholipid and contact activator (ellagic acid) which activates the intrinsic coagulation pathway. After incubating for 3 minutes, calcium chloride is added to initiate coagulation and formation of a fibrin clot is measured optically. The time to clot formation (measured in seconds) is reported as the Activated Partial Thromboplastin Time (aPTT).
Assessment of the dose-response for the occurrence of any bleeding was a secondary objective.
(§1) PD analyses were performed on the PD analysis set, defined as subjects who had at least one valid blood sample drawn for PD. Descriptive statistics (N, mean, SD, median, range, CV (%) and IQ range) were used to summarize PD response at each nominal sampling time point by treatment group. Changes from baseline were summarized when applicable. PD response outside of limit of quantitation were not to be imputed and were to be noted in the summary statistics.

[8] = Steady-state plasma pharmacokinetics of milvexian 100 mg BID
[9] = Milvexian plasma pharmacokinetics, AXIOMATIC-TKR Phase II
Description: (AXIOMATIC-TKR Phase II). […] Assessment of the dose-response for the occurrence of any bleeding was a secondary objective.

[10] = system: thrombin generation; test: Thrombin Generation Assay (TGA), AXIOMATIC-TKR Phase II; format: in vivo, human; conditions: 25-200 mg QD/BID
Description: As used herein, “Thrombin Generation Assay (TGA)” is a global coagulation assay that evaluates the thrombogenic capacity of a plasma sample and has been proposed that it may better reflect prothrombotic or hemorrhagic states than conventional clotting assays. In the traditional TGA, coagulation of citrated plasma is initiated through the extrinsic pathway by adding tissue factor, phospholipids, and calcium. For this study, in the in-vitro thrombin generation assay (TGA) using human platelet-rich plasma, and a kaolin slurry was used instead to initiate coagulation through the contact activation pathway. Thrombin generation is continuously monitored through the product released by cleavage of a thrombin-specific fluorogenic substrate. The generated thrombogram is used to determine several relevant parameters, including endogenous thrombin potential, defined as the area under the thrombin concentration vs. time curve. […]
as §1

[11] = Bleeding in AXIOMATIC-TKR and AXIOMATIC-SSP; format: in vivo, human
Description: […]. […] […]. […] […].

[12] = 100 mg BID on top of standard care antiplatelet therapy

## C[C@@H]1CCC[C@H](n2cnc(-c3cc(Cl)ccc3-n3cc(Cl)nn3)cc2=O)c2cc(ccn2)-c2c(cnn2C(F)F)NC1=O [Milvexian, (5R,9S)-9-(4-(5-chloro-2-(4-chloro-1H-1,2,3-triazol-1-yl)phenyl)-6-oxopyrimidin-1 (6H)-yl)-2^1-(difluoromethyl)-5-methyl-2^1H-3-aza-1 (4,2)-pyridina-2 (5,4)-pyrazolacyclonaphan-4-one]
[1]; 25 mg once daily and twice daily
  rate of major bleeding versus placebo: the same as for placebo
[1]; 50 mg twice daily and above
  major bleeding (BARC Type 3/5): Moderate increases in major bleeding
[1]; 200 mg twice daily
  renal serious and non-serious adverse events leading to discontinuation: higher rate
  study drug discontinuations for adverse events: highest rate of study drug discontinuations for adverse events
[1]; all milvexian doses
  ISTH major and CRNM bleeding, and all bleeding: increases in ISTH major and CRNM bleeding (mainly driven by CRNM), as well as all bleeding
  intracranial haemorrhage or symptomatic haemorrhagic transformation of brain infarction (modified BARC type 3c) versus placebo: no increase
[1]; in the study
  fatal bleeding (BARC type 5): no fatal bleeding
[1]; main composite safety endpoint
  dose-response for major bleeding: no significant dose-response
[1]; trial population
  incidence of major bleeding: 1-2%
[2]; healthy volunteers, twice daily
  median Tmax: approximately 3 hours
[2]; human, oral
  terminal plasma half-life (T1/2): 13 to 16 h
[3]; 50 mg twice daily
  VTE reduction versus enoxaparin: superior to enoxaparin
[3]; 50-200 mg twice daily
  VTE prevention versus enoxaparin 40 mg once daily: superior to enoxaparin 40 mg once daily
[3]; each total daily dose regimen ≥100 mg
  reduction in total VTE versus enoxaparin: statistically significant reductions in total VTE compared to enoxaparin
[4]
  serious bleeding assessed as adverse drug reactions: gastrointestinal bleeding, procedural hemorrhage, nervous system disorder bleeding (hemorrhagic transformation of ischemic stroke and subdural hematoma) and hematuria
[5]; 100 mg milvexian
  ΔΔQTcF, highest upper limit of 2-sided 90% CI: 5.16 ms
[5]; 100 mg twice daily
  ΔΔQTcF at milvexian Tmax, upper limit of 90% CI: below 10 ms
[5]; 200 mg milvexian
  ΔΔQTcF, highest upper limit of 2-sided 90% CI: 4.57 ms
[5]; 200 mg twice daily
  ΔΔQTcF at milvexian Tmax, upper limit of 90% CI: below 10 ms
[5]; multiple doses of 100 and 200 mg, healthy adults
  safety and tolerability: generally safe and well tolerated
[5]; therapeutic (100 mg) and supratherapeutic (200 mg) doses
  QT/QTc interval prolongation: does not show evidence of QT/QTc interval prolongation of clinical or regulatory concern
[6]; 25 mg QD to 200 mg BID, symptomatic ischaemic stroke and incident covert brain infarction
  dose-response for primary composite efficacy endpoint: no significant dose-response
[6]; all doses except 200 mg BID, pre-specified secondary analysis
  symptomatic ischaemic strokes: numerically fewer symptomatic ischaemic strokes
[6]; milvexian doses
  incident covert brain infarcts versus placebo: no effect compared to placebo
[7]
  aPTT dose dependence: dose related increase in aPTT
[8]; 100 mg BID as monotherapy
  steady state Cmax, mean (std): 1760 (566) ng/ml
  steady state AUC0-24, mean (std): 36200 (12900) ng*h/mL
[8]; [12]
  steady state Cmax, mean (std): 1670 (536) ng/mL
  steady state AUC0-24, mean (std): 35000 (12100) ng*h/mL
[9]; Day 4, 25 mg twice daily
  Tmax: approximately 2 hours
[9]; Day 4, 50 mg once daily
  Tmax: approximately 4 hours
[9]; human, in vivo, po, 100 mg
  Tmax: ~2 h
[9]; human, in vivo, po, 200 mg
  Tmax: ~4 h
[9]; in vivo
  observed concentration, Day 4 12 hours after dosing: higher
  observed concentration, Day 7 12 hours after dosing: lower
  time to steady state of mean trough plasma concentrations: approximately 4 Day
[10]
  lag time dose dependence: dose related prolongation in the lag time
  peak thrombin and area under the curve (total thrombin generation): dose related reductions in peak thrombin and area under the curve
  peak thrombin generation dose dependence: clear and robust dose dependent reduction in peak thrombin generation
[11]; AXIOMATIC-TKR / AXIOMATIC-SSP
  fatal bleeding: No fatal bleeding
  symptomatic intracranial hemorrhage: no increases in symptomatic intracranial hemorrhage
[11]; AXIOMATIC-TKR and AXIOMATIC-SSP
  dose-response for bleeding events: No dose-response relationship
